Data on ten compounds can be found in US12617783B2, “Heterocyclic GLP-1R agonists” (BIOMEA FUSION, INC., priority 2024, dated 2026).

T1 sequence (P43220 24-463): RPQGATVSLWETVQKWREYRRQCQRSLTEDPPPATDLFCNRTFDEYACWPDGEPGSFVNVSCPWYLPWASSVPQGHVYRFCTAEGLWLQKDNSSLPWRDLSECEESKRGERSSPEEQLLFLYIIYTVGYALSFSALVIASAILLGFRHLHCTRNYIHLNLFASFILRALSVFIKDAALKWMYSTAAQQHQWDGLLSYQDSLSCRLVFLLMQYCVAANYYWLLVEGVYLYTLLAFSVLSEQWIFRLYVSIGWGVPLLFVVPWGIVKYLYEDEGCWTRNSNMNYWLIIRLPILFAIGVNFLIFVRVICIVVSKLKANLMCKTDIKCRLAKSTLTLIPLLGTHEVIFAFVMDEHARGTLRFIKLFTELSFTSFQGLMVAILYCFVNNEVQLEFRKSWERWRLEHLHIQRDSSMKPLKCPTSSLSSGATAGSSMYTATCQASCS

The first assay concerns the target T1, human GLP-1R (Homo sapiens, UniProt P43220).
T1 construct: host or cells: HEK293
Kind of assay: GLP-1R cAMP assay (Example B1b, HTRF, 30 min at 37°). As to conditions: cAMP accumulation in HEK293 expressing human GLP-1R, no BETP, 30 min at 37° (Method B1b), Table 1. It counts as cell-based. As to the method: Assay was carried out with HEK293 expressing human GLP-1R using HTRF assay, developed by Wuxi Apptec. The method is a competitive assay between native cAMP produced by the cells and exogenous cAMP labeled with a proprietary dye d2. The tracer binding is visualized by a mAb anti-cAMP labeled with Cryptate. The signal (i.e. energy transfer) is inversely proportional to the concentration of CAMP in either standard or experimental sample. Compounds were tested in the absence of BETP. Ten microliter of cell suspension in assay buffer (5 mM HEPES, 500 μM IBMX, 0.1% BSA) were added to each well (1,000 cells per well) in a low volume 384-well plate for the assay. Serially diluted compounds were added in 100 nL volume to duplicate wells, by Labcyte Echo. GLP-1 (7-37) was used as positive control. Assay plate was incubated for 30 minutes at 37°. Stock of cAMP Detection Solution was prepared by mixing 38 parts of cAMP lysis buffer, 1 part of cAMP-D2, 1 part of anti-cAMP cryptate reagent (Cisbio #62AM4PEJ). Ten microliter of the cAMP Detection Solution was added to each well, and the assay plate was incubated for 1 hour at room temperature in the dark. Plates were read on Envision plate reader. The data were analyzed by ScreenUltra in Dotmatics, with % activation expressed using following formula: (Signal ratio […]*10000−negative control)/(postive control−negative control)*100. Dose response curves were plotted and EC50 values calculated by non-linear regression using 4-parameter fit. The potency (EC50) values for cAMP accumulation in HEK293 cells are reported in the Table 1 below (for compounds ID 610-708).
On the technique in general: Changes in cAMP serve as a functional read-out for many G protein-coupled receptors.
Consider `Cc1cc(-n2nc3c(c2-n2ccn(-c4ccc5c(cnn5C)c4F)c2=O)[C@@H]2CC[C@H](C3)N2C(=O)c2c(F)c3cc(C4CCOC(C)(C)C4)ccc3n2[C@@]2(c3noc(=O)[nH]3)C[C@@H]2C)cc(C)c1F` (stereo in doubt) [Compound 712, 3-[(1S,2S)-1-[5-[(4S)-2,2-dimethyltetrahydropyran-4-yl]-3-fluoro-2-[(1S,8R)-4-(4-fluoro-3,5-dimethyl-phenyl)-3-[3-(4-fluoro-1-methyl-indazol-5-yl)-2-oxo-imidazol-1-yl]-4,5,11-triazatricyclo[6.2.1.02,6]undeca-2,5-diene-11-carbonyl]indol-1-yl]-2-methyl-cyclopropyl]-4H-1,2,4-oxadiazol-5-one], for which the EC50 was determined as 0.112 µM.

`Cc1cc(-n2nc3c(c2-n2ccn(-c4ccc5c(cnn5C)c4F)c2=O)[C@@H]2CC[C@H](C3)N2C(=O)c2c(F)c3cc(C4CCOC(C)(C)C4)ccc3n2[C@@]2(c3noc(=O)[nH]3)C[C@@H]2C)cc(C)c1F` (stereo in doubt) [Compound 713, 3-[(1S,2S)-1-[5-[(4R)-2,2-dimethyltetrahydropyran-4-yl]-3-fluoro-2-[(1S,8R)-4-(4-fluoro-3,5-dimethyl-phenyl)-3-[3-(4-fluoro-1-methyl-indazol-5-yl)-2-oxo-imidazol-1-yl]-4,5,11-triazatricyclo[6.2.1.02,6]undeca-2,5-diene-11-carbonyl]indol-1-yl]-2-methyl-cyclopropyl]-4H-1,2,4-oxadiazol-5-one] returned an EC50 of 0.004 µM.

`Cc1cc(-n2nc3c(c2-n2ccn(-c4ccc5ccncc5c4F)c2=O)[C@@H]2CCC[C@H](C3)N2C(=O)c2cc3cc([C@H]4CCOC5(CC5)C4)ccc3n2[C@@]2(c3noc(=O)[nH]3)C[C@@H]2C)cc(C)c1F` [Compound 610, 3-((1S,2S)-1-(2-((4S,8R)-2-(4-fluoro-3,5-dimethylphenyl)-3-(3-(8-fluoroisoquinolin-7-yl)-2-oxo-2,3-dihydro-1H-imidazol-1-yl)-4,5,6,7,8,9-hexahydro-2H-4,8-epiminocycloocta [c]pyrazole-10-carbonyl)-5-((S)-4-oxaspiro[2.5]octan-7-yl)-1H-indol-1-yl)-2-methylcyclopropyl)-1,2,4-oxadiazol-5 (4H)-one]: the EC50 worked out at 0.0008 µM.

Another assay has as its target T1, human GLP-1R. Description: GLP-1R cAMP assay (Example B1a, HTRF, 30 min at room temperature). It counts as cell-based. As to conditions: cAMP accumulation in HEK293 expressing human GLP-1R, no BETP, 30 min room temperature (Method B1a, compounds ID 1-609), Table 1; read-out: EC50. An outline of the steps:
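Competitive HTRF read-out of cAMP after 30 min room-temperature stimulation, BETP absent, of human GLP-1R-HEK293 cells (1,000/well) in HEPES buffer with 500 μM IBMX and 0.1% BSA. Activation normalised to GLP-1(7-37) positive control. EC50 from 4-parameter non-linear regression.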
With `Cc1cc(-n2nc3c(c2-n2ccn(-c4ccc5c(cnn5C)c4F)c2=O)[C@@H]2CCC[C@H](C3)N2S(=O)(=O)c2cc3cc([C@@H]4CCOC5(CC5)C4)ccc3n2[C@]2(c3noc(=O)[nH]3)C[C@@H]2C)cc(C)c1F` [Compound 603, 3-[(1R,2S)-1-[2-[[(1S,8R)-4-(4-fluoro-3,5-dimethyl-phenyl)-3-[3-(4-fluoro-1-methyl-indazol-5-yl)-2-oxo-imidazol-1-yl]-4,5,12-triazatricyclo[6.3.1.02,6]dodeca-2,5-dien-12-yl]sulfonyl]-5-[(7R)-4-oxaspiro[2.5]octan-7-yl]indol-1-yl]-2-methyl-cyclopropyl]-4H-1,2,4-oxadiazol-5-one], the EC50 is ≥ 10000 nM.

For `Cc1cc(-n2nc3c(c2-n2ccn(-c4ccc5c(cnn5C)c4F)c2=O)[C@@H]2CCC[C@H](C3)N2S(=O)(=O)c2cc3cc([C@@H]4CCOC5(CC5)C4)ccc3n2[C@@]2(c3noc(=O)[nH]3)C[C@@H]2C)cc(C)c1F` [Compound 604, 3-[(1S,2S)-1-[2-[[(1S,8R)-4-(4-fluoro-3,5-dimethyl-phenyl)-3-[3-(4-fluoro-1-methyl-indazol-5-yl)-2-oxo-imidazol-1-yl]-4,5,12-triazatricyclo[6.3.1.02,6]dodeca-2,5-dien-12-yl]sulfonyl]-5-[(7R)-4-oxaspiro[2.5]octan-7-yl]indol-1-yl]-2-methyl-cyclopropyl]-4H-1,2,4-oxadiazol-5-one], the EC50 amounted to 839 nM.

In the case of `Cc1cc(-n2nc3c(c2-n2ccn(-c4ccc5ccncc5c4F)c2=O)[C@@H]2CCC[C@H](C3)N2S(=O)(=O)c2cc3cc([C@H]4CCOC(C)(C)C4)ccc3n2[C@]2(c3noc(=O)[nH]3)C[C@@H]2C)cc(C)c1F` [Compound 605, 3-[(1R,2S)-1-[5-[(4S)-2,2-dimethyltetrahydropyran-4-yl]-2-[[(1S,8R)-4-(4-fluoro-3,5-dimethyl-phenyl)-3-[3-(8-fluoro-7-isoquinolyl)-2-oxo-imidazol-1-yl]-4,5,12-triazatricyclo[6.3.1.02,6]dodeca-2,5-dien-12-yl]sulfonyl]indol-1-yl]-2-methyl-cyclopropyl]-4H-1,2,4-oxadiazol-5-one], the EC50 is ≥ 10000 nM.

As for `Cc1cc(-n2nc3c(c2-n2ccn(-c4ccc5c(cnn5C)c4F)c2=O)[C@H](C)N(C(=O)c2cc4cc([C@H]5CCOC6(CC6)C5)ccc4n2[C@@]2(c4noc(=O)[nH]4)C[C@@H]2C)CCC3)cc(C)c1F` [Compound 606, 3-((1S,2S)-1-(2-((S)-3-(3-(4-fluoro-1-methyl-1H-indazol-5-yl)-2-oxo-2,3-dihydro-1H-imidazol-1-yl)-2-(4-fluoro-3,5-dimethylphenyl)-4-methyl-2,4,5,6,7,8-hexahydropyrazolo[4,3-c]azepine-5-carbonyl)-5-((S)-4-oxaspiro[2.5]octan-7-yl)-1H-indol-1-yl)-2-methylcyclopropyl)-1,2,4-oxadiazol-5 (4H)-one], the EC50 is 80.4 nM.

In the case of `Cc1cc(-n2nc3c(c2-n2ccn(-c4ccc5c(cnn5C)c4F)c2=O)[C@H](C)N(C(=O)c2cc4cc(C5CCOCC5)ccc4n2[C@@]2(c4noc(=O)[nH]4)C[C@@H]2C)CCC3)cc(C)c1F` [Compound 607, 3-((1S,2S)-1-(2-((S)-3-(3-(4-fluoro-1-methyl-1H-indazol-5-yl)-2-oxo-2,3-dihydro-1H-imidazol-1-yl)-2-(4-fluoro-3,5-dimethylphenyl)-4-methyl-2,4,5,6,7,8-hexahydropyrazolo[4,3-c]azepine-5-carbonyl)-5-(tetrahydro-2H-pyran-4-yl)-1H-indol-1-yl)-2-methylcyclopropyl)-1,2,4-oxadiazol-5 (4H)-one], the EC50 is 53.7 nM.

For the compound `Cc1cc(-n2nc3c(c2-n2ccn(-c4ccc5c(cnn5C)c4F)c2=O)[C@@H]2CCC[C@H](C3)N2S(=O)(=O)c2cc3cc([C@H]4CCOC5(CC5)C4)ccc3n2[C@@]2(c3noc(=O)[nH]3)C[C@@H]2C)cc(C)c1F` [Compound 608, 3-[(1S,2S)-1-[2-[[(1S,8R)-4-(4-fluoro-3,5-dimethyl-phenyl)-3-[3-(4-fluoro-1-methyl-indazol-5-yl)-2-oxo-imidazol-1-yl]-4,5,12-triazatricyclo[6.3.1.02,6]dodeca-2,5-dien-12-yl]sulfonyl]-5-[(7S)-4-oxaspiro[2.5]octan-7-yl]indol-1-yl]-2-methyl-cyclopropyl]-4H-1,2,4-oxadiazol-5-one], the EC50 is ≥ 10000 nM.

Regarding `Cc1cc(-n2nc3c(c2-n2ccn(-c4ccc5c(cnn5C)c4F)c2=O)[C@@H]2CCC[C@H](C3)N2S(=O)(=O)c2cc3cc([C@H]4CCOC5(CC5)C4)ccc3n2[C@]2(c3noc(=O)[nH]3)C[C@@H]2C)cc(C)c1F` [Compound 609, 3-[(1R,2S)-1-[2-[[(1S,8R)-4-(4-fluoro-3,5-dimethyl-phenyl)-3-[3-(4-fluoro-1-methyl-indazol-5-yl)-2-oxo-imidazol-1-yl]-4,5,12-triazatricyclo[6.3.1.02,6]dodeca-2,5-dien-12-yl]sulfonyl]-5-[(7S)-4-oxaspiro [2.5]octan-7-yl]indol-1-yl]-2-methyl-cyclopropyl]-4H-1,2,4-oxadiazol-5-one], the EC50 is ≥ 10000 nM.

As a reminder, the EC50 is the midpoint of the concentration-response curve.
